≈ marks a conversion by molar mass, not a printed value.
Experiments:
Format in all cases: functional
Haemophilus influenzae [1] = assay: Antimicrobial susceptibility against Haemophilus influenzae B isolate with AcrR Leu31His mutation
Haemophilus influenzae [2] = assay: Antimicrobial susceptibility against Haemophilus influenzae B1 isolate with GyrA Asp88Tyr and AcrR Leu31His mutation
Haemophilus influenzae [3] = assay: Antimicrobial susceptibility against Haemophilus influenzae B2 isolate with GyrA Asp88Tyr and AcrR Leu31His mutation
Haemophilus influenzae [4] = assay: Antimicrobial susceptibility against Haemophilus influenzae C isolate with AcrR Leu31His and Arg34Glu mutation
Haemophilus influenzae [5] = assay: Antimicrobial susceptibility against Haemophilus influenzae C1 isolate with GyrA Asp88Asn, AcrR Leu31His and Arg34Glu mutation
Haemophilus influenzae [6] = assay: Antimicrobial susceptibility against Haemophilus influenzae C2 isolate with GyrA Asp88Asn, AcrR Leu31His and Arg34Glu mutation
Haemophilus influenzae [7] = assay: Antimicrobial susceptibility against Haemophilus influenzae C3 isolate with GyrA Asp88Asn, ParC Ser84Ile, AcrR Leu31His and Arg34Glu mutation
Haemophilus influenzae [8] = assay: Antimicrobial susceptibility against Haemophilus influenzae D isolate with AcrR Leu31His, Ile121Val and Gln134Lys mutation
Haemophilus influenzae [9] = assay: Antimicrobial susceptibility against Haemophilus influenzae D1 isolate with GyrA Ser84Tyr, ParC Glu88Lys and AcrR Leu31His, Ile121Val and Gln134Lys mutation
Haemophilus influenzae [10] = assay: Antimicrobial susceptibility against Haemophilus influenzae D2 isolate with GyrA Ser84Tyr, ParC Glu88Lys and AcrR Leu31His, Ile121Val and Gln134Lys mutation
Haemophilus influenzae [11] = assay: Antimicrobial susceptibility against Haemophilus influenzae D3 isolate with GyrA Ser84Tyr, ParC Glu88Lys and AcrR Leu31His, Ile121Val and Gln134Lys mutation
Haemophilus influenzae [12] = assay: Antimicrobial susceptibility against Haemophilus influenzae D4 isolate with GyrA Ser84Tyr, ParC Glu88Lys and AcrR Leu31His, Ile121Val and Gln134Lys mutation
Haemophilus influenzae [13] = assay: Antimicrobial susceptibility against Haemophilus influenzae A isolate with GyrA Glu83Cys and AcrR 97stop codon mutation
Haemophilus influenzae [14] = assay: Antimicrobial susceptibility against Haemophilus influenzae A1 isolate with GyrA Glu83Cys, ParC Ser84Arg and AcrR 97stop codon mutation
Haemophilus influenzae [15] = assay: Antimicrobial susceptibility against Haemophilus influenzae A2 with GyrA Glu83Cys, ParC Ser84Arg and AcrR 97stop codon mutation
Haemophilus influenzae [16] = assay: Antimicrobial susceptibility against Haemophilus influenzae A3 isolate with GyrA Glu83Cys, ParC Ser84Arg and AcrR 97stop codon mutation
Haemophilus influenzae [17] = assay: Antimicrobial susceptibility against Haemophilus influenzae A4 isolate with GyrA Glu83Cys, ParC Ser84Arg and AcrR 97stop codon mutation

| SMILES | MIC (Haemophilus influenzae [1]) [µg/mL] | MIC (Haemophilus influenzae [2]) [µg/mL] | MIC (Haemophilus influenzae [3]) [µg/mL] | MIC (Haemophilus influenzae [4]) [µg/mL] | MIC (Haemophilus influenzae [5]) [µg/mL] | MIC (Haemophilus influenzae [6]) [µg/mL] | MIC (Haemophilus influenzae [7]) [µg/mL] | MIC (Haemophilus influenzae [8]) [µg/mL] | MIC (Haemophilus influenzae [9]) [µg/mL] | MIC (Haemophilus influenzae [10]) [µg/mL] | MIC (Haemophilus influenzae [11]) [µg/mL] | MIC (Haemophilus influenzae [12]) [µg/mL] | MIC (Haemophilus influenzae [13]) [µg/mL] | MIC (Haemophilus influenzae [14]) [µg/mL] | MIC (Haemophilus influenzae [15]) [µg/mL] | MIC (Haemophilus influenzae [16]) [µg/mL] | MIC (Haemophilus influenzae [17]) [µg/mL] |
| --- | --- | --- | --- | --- | --- | --- | --- | --- | --- | --- | --- | --- | --- | --- | --- | --- | --- |
| O=C(O)c1cn(C2CC2)c2cc(N3CCNCC3)c(F)cc2c1=O [CIPROFLOXACIN] | 0.03 (≈ 0.0905 µM) | 0.12 (≈ 0.362 µM) | 0.25 (≈ 0.754 µM) | 0.01 (≈ 0.0302 µM) | 0.12 (≈ 0.362 µM) | 2 (≈ 6.04 µM) | 8 (≈ 24.1 µM) | 0.01 (≈ 0.0302 µM) | 1 (≈ 3.02 µM) | 4 (≈ 12.1 µM) | 8 (≈ 24.1 µM) | 16 (≈ 48.3 µM) | 0.01 (≈ 0.0302 µM) | 0.25 (≈ 0.754 µM) | 0.25 (≈ 0.754 µM) | 2 (≈ 6.04 µM) | 4 (≈ 12.1 µM) |
| C[C@H]1COc2c(N3CCN(C)CC3)c(F)cc3c(=O)c(C(=O)O)cn1c23.C[C@H]1COc2c(N3CCN(C)CC3)c(F)cc3c(=O)c(C(=O)O)cn1c23.O [LEVOFLOXACIN] | 0.03 | 0.25 | 0.25 | 0.03 | 0.12 | 2 | 8 | 0.03 | 0.5 | 2 | 4 | 4 | 0.03 | 0.25 | 0.5 | 0.5 | 4 |
| COc1c(N2C[C@@H]3CCCN[C@@H]3C2)c(F)cc2c(=O)c(C(=O)O)cn(C3CC3)c12 [MOXIFLOXACIN] | 0.06 (≈ 0.149 µM) | 0.25 (≈ 0.623 µM) | 0.25 (≈ 0.623 µM) | 0.03 (≈ 0.0747 µM) | 0.12 (≈ 0.299 µM) | 4 (≈ 9.96 µM) | 4 (≈ 9.96 µM) | 0.03 (≈ 0.0747 µM) | 0.5 (≈ 1.25 µM) | 2 (≈ 4.98 µM) | 2 (≈ 4.98 µM) | 2 (≈ 4.98 µM) | 0.03 (≈ 0.0747 µM) | 0.5 (≈ 1.25 µM) | 0.5 (≈ 1.25 µM) | 0.5 (≈ 1.25 µM) | 2 (≈ 4.98 µM) |
| CCn1cc(C(=O)O)c(=O)c2ccc(C)nc21 [NALIDIXIC ACID] | 0.5 (≈ 2.15 µM) | 32 (≈ 138 µM) | 64 (≈ 276 µM) | 0.5 (≈ 2.15 µM) | 16 (≈ 68.9 µM) | 128 (≈ 551 µM) | 128 (≈ 551 µM) | 0.5 (≈ 2.15 µM) | 64 (≈ 276 µM) | 64 (≈ 276 µM) | 128 (≈ 551 µM) | 128 (≈ 551 µM) | 0.5 (≈ 2.15 µM) | 1 (≈ 4.31 µM) | 64 (≈ 276 µM) | 64 (≈ 276 µM) | 128 (≈ 551 µM) |

— ChEMBL document CHEMBL1147114, “Fluoroquinolone resistance in Haemophilus influenzae is associated with hypermutability” (2007)
